Legend:
FKBP51 = FKBP51 (Homo sapiens (Human), UniProt Q13451); assay: SPR assay to determine binding affinity to FKBP51 (direct binding); conditions: immobilized biotinylated avi-FKBP51
Outline: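 Biotinylated avi-FKBP51 captured on streptavidin chip to about 2000 RU. Compounds injected at 0.5-1000 nM (8 points, 3-fold) for 120 s contact and 3600 s dissociation in 50 mM HEPES pH 7.5, 150 mM NaCl, 2 mM MgCl2, 1 mM DTT, 0.05% Tween-20, 1% DMSO.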

[1] = biological target: FKBP12 / FRB ternary complex (Homo sapiens (Human), UniProt P42345+P62942); assay: SPR assay to characterize ternary complex formation with FKBP12 (FRB binding to rapalog-saturated FKBP12); conditions: FRB dilutions with 100 nM rapalog on immobilized FKBP12
Outline: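 Biotinylated avi-FKBP12 immobilized (~100 RU) on streptavidin chip; A-B-A injections kept FKBP12 saturated with 100 nM rapalog while FRB (0.00011–20 μM, 3-fold, 12 points) was injected 120 s.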

mTORC2 = mTORC2 (Homo sapiens (Human), UniProt P42345+P62942); assay: mTORC2 inhibition, AlphaLISA of Phospho-AKT (pAKT pS473) in PC3 cells; format: cell-based
[2] = biological target: FKBP51 / FRB ternary complex (Homo sapiens (Human), UniProt P42345+Q13451); assay: SPR assay to characterize ternary complex formation with FKBP51 (FRB binding to rapalog-saturated FKBP51); conditions: FRB dilutions with 100 nM rapalog on immobilized FKBP51
Outline: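 SPR with biotinylated avi-FKBP51 on streptavidin chip (~200 RU); FRB (0.00011-20 μM, 3-fold series) injected with 100 nM rapalog, A-B-A mode keeping FKBP saturated with rapalog.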

mTORC1 = mTORC1 (Homo sapiens (Human), UniProt P42345+P62942); assay: mTORC1 inhibition, AlphaLISA of Phospho-p70 S6 kinase (p70S6K pT389) in PC-3 cells; format: cell-based; conditions: inhibition of p70S6K pT389 levels
FKBP12 = FKBP12 (Homo sapiens (Human), UniProt P62942); assay: SPR assay to determine binding affinity to FKBP12 (direct binding); conditions: immobilized biotinylated avi-FKBP12
FKBP12, sequence (P62942 whole entry): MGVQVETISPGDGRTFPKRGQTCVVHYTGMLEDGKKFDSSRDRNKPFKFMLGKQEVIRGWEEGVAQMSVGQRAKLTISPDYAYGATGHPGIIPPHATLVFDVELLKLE

FKBP51, sequence (Q13451 whole entry): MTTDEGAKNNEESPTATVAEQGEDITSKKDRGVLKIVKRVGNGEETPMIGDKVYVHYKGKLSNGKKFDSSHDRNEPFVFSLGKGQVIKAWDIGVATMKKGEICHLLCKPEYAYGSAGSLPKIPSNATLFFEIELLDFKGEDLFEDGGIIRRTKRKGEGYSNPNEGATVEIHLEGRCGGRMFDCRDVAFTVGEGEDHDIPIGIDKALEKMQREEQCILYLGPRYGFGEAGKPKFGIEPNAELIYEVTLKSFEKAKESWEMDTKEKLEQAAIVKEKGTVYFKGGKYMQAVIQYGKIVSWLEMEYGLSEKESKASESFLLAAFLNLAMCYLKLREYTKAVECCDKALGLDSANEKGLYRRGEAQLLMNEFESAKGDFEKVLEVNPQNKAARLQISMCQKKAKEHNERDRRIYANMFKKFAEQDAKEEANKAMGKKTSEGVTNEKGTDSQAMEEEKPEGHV

SMILES	Kd (FKBP51) [nM]	Kd [1] [nM]	mTORC2 % inhibition at 1 uM (mTORC2)	Kd [2] [nM]	IC50 (mTORC1) [nM]	Kd (FKBP12) [nM]
CO[C@@H]1C[C@H](C[C@@H](C)[C@@H]2CC(=O)[C@H](C)/C=C(\C)[C@@H](O)[C@@H](OC)C(=O)[C@H](C)C[C@H](C)/C=C/C=C/C=C(\C)[C@H](NS(=O)(=O)CC3CCCC3)C[C@@H]3CC[C@@H](C)[C@@](O)(O3)C(=O)C(=O)N3CCCC[C@H]3C(=O)O2)CC[C@H]1O [Compound 22]	> 100	> 800	A (A ≤20% inhibition at 1 micro Molar (uM))	> 800	0.1 to 0.8	< 0.3
CO[C@@H]1C[C@H](C[C@@H](C)[C@@H]2CC(=O)[C@H](C)/C=C(\C)[C@@H](O)[C@@H](OC)C(=O)[C@H](C)C[C@H](C)/C=C/C=C/C=C(\C)[C@@H](NS(=O)(=O)CC3CCCC3)C[C@@H]3CC[C@@H](C)[C@@](O)(O3)C(=O)C(=O)N3CCCC[C@H]3C(=O)O2)CC[C@H]1O [Compound 23]	10 to 100	> 800	A (A ≤20% inhibition at 1 micro Molar (uM))	> 800	> 0.8	< 0.3
COCCOCCOCCS(=O)(=O)N[C@H]1C[C@@H]2CC[C@@H](C)[C@@](O)(O2)C(=O)C(=O)N2CCCC[C@H]2C(=O)O[C@H]([C@H](C)C[C@@H]2CC[C@@H](O)[C@H](OC)C2)CC(=O)[C@H](C)/C=C(\C)[C@@H](O)[C@@H](OC)C(=O)[C@H](C)C[C@H](C)/C=C/C=C/C=C/1C [Compound 25]	10 to 100	300 to 800	A (A ≤20% inhibition at 1 micro Molar (uM))	> 800	0.1 to 0.8	< 0.3
CO[C@@H]1C[C@H](C[C@@H](C)[C@@H]2CC(=O)[C@H](C)/C=C(\C)[C@@H](O)[C@@H](OC)C(=O)[C@H](C)C[C@H](C)/C=C/C=C/C=C(\C)[C@@H](OC3CCS(=O)(=O)C3)C[C@@H]3CC[C@@H](C)[C@@](O)(O3)C(=O)C(=O)N3CCCC[C@H]3C(=O)O2)CC[C@H]1O (stereo partly drawn) [Compound 26]	> 100	> 800	A (A ≤20% inhibition at 1 micro Molar (uM))	> 800	> 0.8	< 0.3
CO[C@@H]1C[C@H](C[C@@H](C)[C@@H]2CC(=O)[C@H](C)/C=C(\C)[C@@H](O)[C@@H](OC)C(=O)[C@H](C)C[C@H](C)/C=C/C=C/C=C(\C)[C@@H](OCCC3CCS(=O)(=O)C3)C[C@@H]3CC[C@@H](C)[C@@](O)(O3)C(=O)C(=O)N3CCCC[C@H]3C(=O)O2)CC[C@H]1O (stereo partly drawn) [Compound 27]	10 to 100	> 800	A (A ≤20% inhibition at 1 micro Molar (uM))	> 800	> 0.8	< 0.3
CO[C@@H]1C[C@H](C[C@@H](C)[C@@H]2CC(=O)[C@H](C)/C=C(\C)[C@@H](O)[C@@H](OC)C(=O)[C@H](C)C[C@H](C)/C=C/C=C/C=C(\C)[C@@H](OCCC3CCO3)C[C@@H]3CC[C@@H](C)[C@@](O)(O3)C(=O)C(=O)N3CCCC[C@H]3C(=O)O2)CC[C@H]1O (stereo partly drawn) [Compound 28]	10 to 100	> 800	B (B>20% and less than 40% inhibition at 1 uM)	> 800	0.1 to 0.8	< 0.3
CO[C@@H]1C[C@H](C[C@@H](C)[C@@H]2CC(=O)[C@H](C)/C=C(\C)[C@@H](O)[C@@H](OC)C(=O)[C@H](C)C[C@H](C)/C=C/C=C/C=C(\C)[C@@H](OCC3CCS(=O)(=O)C3)C[C@@H]3CC[C@@H](C)[C@@](O)(O3)C(=O)C(=O)N3CCCC[C@H]3C(=O)O2)CC[C@H]1O (stereo partly drawn) [Compound 30]	10 to 100	> 800	A (A ≤20% inhibition at 1 micro Molar (uM))	> 800	> 0.8	< 0.3
CO[C@@H]1C[C@H](C[C@@H](C)[C@@H]2CC(=O)[C@H](C)/C=C(\C)[C@@H](O)[C@@H](OC)C(=O)[C@H](C)C[C@H](C)/C=C/C=C/C=C(\C)[C@@H](OCC3CCOC3)C[C@@H]3CC[C@@H](C)[C@@](O)(O3)C(=O)C(=O)N3CCCC[C@H]3C(=O)O2)CC[C@H]1O (stereo partly drawn) [Compound 31]	10 to 100	> 800	A (A ≤20% inhibition at 1 micro Molar (uM))	> 800	0.1 to 0.8	< 0.3
CO[C@@H]1C[C@H](C[C@@H](C)[C@@H]2CC(=O)[C@H](C)/C=C(\C)[C@@H](O)[C@@H](OC)C(=O)[C@H](C)C[C@H](C)/C=C/C=C/C=C(\C)[C@@H](OCCC3CCOC3)C[C@@H]3CC[C@@H](C)[C@@](O)(O3)C(=O)C(=O)N3CCCC[C@H]3C(=O)O2)CC[C@H]1O (stereo partly drawn) [Compound 32]	10 to 100	300 to 800	A (A ≤20% inhibition at 1 micro Molar (uM))	> 800	0.1 to 0.8	< 0.3
COC1CC(CC(C)C2CC(=O)C(C)C=C(C)C(O)C(OC)C(=O)C(C)CC(C)C=CC=CC=C(C)C(OC3CCOCC3)CC3CCC(C)C(O)(O3)C(=O)C(=O)N3CCCCC3C(=O)O2)CCC1O (stereo not drawn) [Compound 33]	10 to 100	> 800	A (A ≤20% inhibition at 1 micro Molar (uM))	> 800	> 0.8	< 0.3
CO[C@@H]1C[C@H](C[C@@H](C)[C@@H]2CC(=O)[C@H](C)/C=C(\C)[C@@H](O)[C@@H](OC)C(=O)[C@H](C)C[C@H](C)/C=C/C=C/C=C(\C)[C@@H](OCCC3COC3)C[C@@H]3CC[C@@H](C)[C@@](O)(O3)C(=O)C(=O)N3CCCC[C@H]3C(=O)O2)CC[C@H]1O [Compound 34]	10 to 100	> 800	A (A ≤20% inhibition at 1 micro Molar (uM))	> 800	> 0.8	< 0.3
COC1CC(CC(C)C2CC(=O)C(C)C=C(C)C(O)C(OC)C(=O)C(C)CC(C)C=CC=CC=C(C)C(OC3CCOC3)CC3CCC(C)C(O)(O3)C(=O)C(=O)N3CCCCC3C(=O)O2)CCC1O (stereo not drawn) [Compound 35]	< 10	> 800	A (A ≤20% inhibition at 1 micro Molar (uM))	> 800	> 0.8	< 0.3
COC1CC(CC(C)C2CC(=O)C(C)C=C(C)C(O)C(OC)C(=O)C(C)CC(C)C=CC=CC=C(C)C(OCC3CCC3)CC3CCC(C)C(O)(O3)C(=O)C(=O)N3CCCCC3C(=O)O2)CCC1O (stereo not drawn) [Compound 36]	> 100	300 to 800	B (B>20% and less than 40% inhibition at 1 uM)	> 800	0.1 to 0.8	< 0.3
COC1CC(CC(C)C2CC(=O)C(C)C=C(C)C(O)C(OC)C(=O)C(C)CC(C)C=CC=CC=C(C)C(OCCC3COC3)CC3CCC(C)C(O)(O3)C(=O)C(=O)N3CCCCC3C(=O)O2)CCC1OCCO (stereo not drawn) [Compound 38]	10 to 100	> 800	A (A ≤20% inhibition at 1 micro Molar (uM))	> 800	0.1 to 0.8	0.3 to 1
COC1CC(CC(C)C2CC(=O)C(C)C=C(C)C(O)C(OC)C(=O)C(C)CC(C)C=CC=CC=C(C)C(OCC3CC3)CC3CCC(C)C(O)(O3)C(=O)C(=O)N3CCCCC3C(=O)O2)CCC1O (stereo not drawn) [Compound 39]	> 100	300 to 800	B (B>20% and less than 40% inhibition at 1 uM)	> 800	0.1 to 0.8	0.3 to 1
COC1CC(CC(C)C2CC(=O)C(C)C=C(C)C(O)C(OC)C(=O)C(C)CC(C)C=CC=CC=C(C)C(OCC3CCCC3)CC3CCC(C)C(O)(O3)C(=O)C(=O)N3CCCCC3C(=O)O2)CCC1O (stereo not drawn) [Compound 40]	> 100	300 to 800	A (A ≤20% inhibition at 1 micro Molar (uM))	> 800	0.1 to 0.8	> 1

From patent US11603377B2, “MTORC1 modulators and uses thereof” (Aeovian Pharmaceuticals, Inc., priority 2020, dated 2023)
